The numbers were not newly measured in patent EP1754488A1, “Methods and compositions for non-viral gene therapy for treatment of hyperproliferative diseases” (Introgen Therapeutics, Inc., priority 1999, dated 2000), which cites them from elsewhere.

Molecules are shown by their SMILES. Counter-ions that a name gives are not always drawn. *1 amine or outer side, *2 acyl side, *3 side chain or, on linkers, in order; H or OH if unused. Where a SMILES comes first, the peptide text is derived from it. Bridges are numbered along the chain shown (N, C = ends). Roman numbers before positions name the chains, in order. [ ]: non-standard residue; d: D form. Actinocin(9to1) = Cc1c2oc3c(C)ccc(C(=O)[*:1])c3nc-2c(C(=O)[*:2])c(N)c1=O; NMeV = CN[C@H](C(=O)O)C(C)C; Sar = CNCC(=O)O

For one data set, the system named is multiple myeloma. The note with it: oral administration.

With `O=NN(CCCl)C(=O)NC1CCCCC1` [Lomustine, 1-(2-chloro-ethyl)-3-cyclohexyl-1 nitrosourea], under “oral radioactive lomustine, 30 mg/m^2 to 100 mg/m^2”, the “radioactivity excreted in the form of degradation products within 24 hours” value is “about half of the radioactivity”.

On to `COc1cccc2c1C(=O)c1c(O)c3c(c(O)c1C2=O)C[C@@](O)(C(C)=O)C[C@@H]3O[C@H]1C[C@H](N)[C@H](O)[C@H](C)O1` [Daunorubicin, 5,12-Naphthacenedione, (8S-cis)-8-acetyl-10-[(3-amino-2,3,6-trideoxy-a-L-lyxo-hexanopyranosyl)oxy]-7,8,9,10-tetrahydro-6,8,11-trihydroxy-10-methoxy-, hydrochloride], for which, for the setting “in vivo”, the half-life of distribution was 0.75 h.

For the compound `CC[C@]1(O)C[C@@H]2CN(CCc3c([nH]c4ccccc34)[C@@](C(=O)OC)(c3cc4c(cc3OC)N(C)[C@H]3[C@@](O)(C(=O)OC)[C@H](OC(C)=O)[C@]5(CC)C=CCN6CC[C@]43[C@@H]65)C2)C1` [Vinblastine], the “excreted / detected intact in the urine” value (in vivo) is reported as “Approximately 15%”. In addition, where the note is “intravenous injection”, the “half-life of disappearance from plasma after distribution (first)” value was “approximately 1 hours” and the “half-life of disappearance from plasma after distribution (second)” value was around 72000 s.

For the compound `Cc1c2oc3c(C)ccc(C(=O)N[C@@H]4C(=O)N[C@H](C(C)C)C(=O)N5CCC[C@H]5C(=O)N(C)CC(=O)N(C)[C@@H](C(C)C)C(=O)O[C@@H]4C)c3nc-2c(C(=O)N[C@@H]2C(=O)N[C@H](C(C)C)C(=O)N3CCC[C@H]3C(=O)N(C)CC(=O)N(C)[C@@H](C(C)C)C(=O)O[C@@H]2C)c(N)c1=O` [Actinomycin D] (I: T[dV]P[Sar][NMeV] / II: T[dV]P[Sar][NMeV]; ester I:1-I:C, II:1-II:C; linker I:N-II:N via Actinocin(9to1)), under “in vivo”, the “excreted / detected intact in the urine” value is listed as 10% and the “excreted intact into the bile” value is recorded as “Half of the dose”.

Take `N[C@@H](Cc1ccc(N(CCCl)CCCl)cc1)C(=O)O` [Melphalan, 4-[bis(2-chloroethyl)amino]-L-phenylalanine]: in the data set on multiple myeloma, the “patients showing a favorable response” value was “about one third to one half of the patients”.
